Laboratory results taken from publication PMC6413085, “A Validated HPLC-MS/MS Assay for 14-O-[(4,6-Diaminopyrimidine-2-yl)thioacetyl] Mutilin in Biological Samples and Its Pharmacokinetic, Distribution and Excretion via Urine and Feces in Rats” (Molecules, 2019).

Experiments:
[1] = Tissue distribution study in rats; assay type: in vivo, Sprague-Dawley rats; settings: rat, 75 mg/kg; for highest level in cecum / highest level in jejunum / highest level in large intestine / highest level in lung / highest level in small intestine: within the first 24 h;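 for highest level in cecum: three values per tissue are for i.v. then i.m. then p.o. dosing in that order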;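 for highest level in jejunum: three values per tissue are for i.v. then i.m. then p.o. dosing in that order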;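 for highest level in large intestine: three values per tissue are for i.v. then i.m. then p.o. dosing in that order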;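 for highest level in lung: three values per tissue are for i.v. then i.m. then p.o. dosing in that order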
Method: We also successfully used the established LC-MS/MS method for detection of the concentration of DPTM in rat tissue homogenates. The quantification of DPTM used the specific standard curves in each corresponding bio-matrix. After i.v., i.m. and p.o. administration of 75 mg/kg DPTM, tissue distribution was investigated at 0.5, 4, 12 and 48 h by collecting the heart, liver, brain, spleen, lung, kidney, large intestine, small intestine, ileum, cecum, bladder, jejunum and colon. Tissue distribution study in rats was performed as described previously. Animals were divided into three groups (n = 12) and DPTM was administered via i.m., i.v. and p.o. with a single dose of 75 mg/kg. A series of heart, liver, spleen, lung, kidney, large intestine, small intestine, ileum, cecum, bladder, brain, jejunum and colon samples were collected before and at 0.5, 4, 12 and 48 h time points after administration and rinsed with phosphate buffer to remove the blood and feces, followed by weighing the wet weight and freezing at −70 °C until analysis. The concentrations of DPTM in rat various tissues were expressed in ng/g and calculated by equation: Ct = Cs × Vs/P, where Ct represented the tissue concentration (ng/g), Cs, Vs and P were the concentration (ng/mL), the volume (mL) and the weight (g) of the tissue samples, respectively.

[2] = Stability of DPTM in plasma, tissue homogenates, urine and feces (QC samples); assay type: physicochemical, rat
Method: Stability of DPTM and IS was examined by comparing the analytes’ concentrations in freshly prepared samples with those of samples maintained under different conditions, including the 24 h storage at room temperature, three freeze and thaw cycles, and storage at −70 °C for 4 weeks, respectively. Analyzing three levels of QC samples were used to assess the stability (accuracy and precision) with six replicates.
For the construction of calibration curves, 20 μL of each corresponding standard working solution (0.05, 0.2, 0.5, 1, 2, 5, 10, 20 and 40 μg/mL) was evaporated to dryness by nitrogen at 40 °C. The calibration standards (5, 20, 50, 100, 200, 500, 1000, 2000 and 4000 ng/mL) were prepared by adding 200 μL of blank plasma, various tissue homogenates (including heart, liver, spleen, lung, kidney, large intestine, small intestine, ileum, cecum, bladder, brain, jejunum and colon) or urine and feces to the residue, respectively. Quality control (QC) samples (10, 200 and 3000 ng/mL) were obtained by the same way as the calibration standards. All solutions were stored at −70 °C before use for no longer than 4 weeks.

C=CC1(C)CC(OC(=O)CSc2nc(N)cc(N)n2)C2(C)C(C)CCC3(CCC(=O)C32)C(C)C1O (centres unmarked) [DPTM, 14-O-[(4,6-Diaminopyrimidine-2-yl)thioacetyl] mutilin]
amount in colon until 48 h ([1]; i.m.): 7849 ± 243 ng/mg
highest level in cecum ([1]; i.m.): 63404 ± 407 ng/mg
highest level in jejunum ([1]; i.m.): 12551 ± 432 ng/mg
highest level in large intestine ([1]; i.m.): 17978 ± 116 ng/mg
highest level in lung ([1]; i.m.): 15345 ± 579 ng/mg
highest level in small intestine ([1]; i.m.): 37890 ± 437 ng/mg
amount in colon until 48 h ([1]; i.v.): 3214 ± 177 ng/mg
highest level in cecum ([1]; i.v.): 62457 ± 675 ng/mg
highest level in jejunum ([1]; i.v.): 23543 ± 799 ng/mg
highest level in large intestine ([1]; i.v.): 31241 ± 355 ng/mg
highest level in lung ([1]; i.v.): 39411 ± 357 ng/mg
highest level in small intestine ([1]; i.v.): 26753 ± 690 ng/mg
amount in colon until 48 h ([1]; p.o.): 22114 ± 215 ng/mg
highest level in cecum ([1]; p.o.): 31087 ± 452 ng/mg
highest level in jejunum ([1]; p.o.): 38769 ± 546 ng/mg
highest level in large intestine ([1]; p.o.): 4123 ± 567 ng/mg
highest level in lung ([1]; p.o.): 14685 ± 654 ng/mg
highest level in small intestine ([1]; p.o.): 6743 ± 474 ng/mg
Stability RE ([2]; Bladder, 10 ng/mL, Freeze-thaw Cycles): 3.9%
Stability RE ([2]; Bladder, 10 ng/mL, Long-term (−70 °C, 4 Weeks)): 3.6%
Stability RE ([2]; Bladder, 10 ng/mL, Short-term (25 °C, 24 h)): 4.1%
Stability RE ([2]; Bladder, 200 ng/mL, Freeze-thaw Cycles): 5.1%
Stability RE ([2]; Bladder, 200 ng/mL, Long-term (−70 °C, 4 Weeks)): 5.1%
Stability RE ([2]; Bladder, 200 ng/mL, Short-term (25 °C, 24 h)): 1.9%
Stability RE ([2]; Bladder, 3000 ng/mL, Freeze-thaw Cycles): 3.5%
Stability RE ([2]; Bladder, 3000 ng/mL, Long-term (−70 °C, 4 Weeks)): 3.3%
Stability RE ([2]; Bladder, 3000 ng/mL, Short-term (25 °C, 24 h)): 3.1%
Stability RE ([2]; Brain, 10 ng/mL, Freeze-thaw Cycles): 4.9%
Stability RE ([2]; Brain, 10 ng/mL, Long-term (−70 °C, 4 Weeks)): 5.3%
Stability RE ([2]; Brain, 10 ng/mL, Short-term (25 °C, 24 h)): 1.1%
Stability RE ([2]; Brain, 200 ng/mL, Freeze-thaw Cycles): 6.5%
Stability RE ([2]; Brain, 200 ng/mL, Long-term (−70 °C, 4 Weeks)): 6.6%
Stability RE ([2]; Brain, 200 ng/mL, Short-term (25 °C, 24 h)): 3.3%
Stability RE ([2]; Brain, 3000 ng/mL, Freeze-thaw Cycles): 4.1%
Stability RE ([2]; Brain, 3000 ng/mL, Long-term (−70 °C, 4 Weeks)): 4.1%
Stability RE ([2]; Brain, 3000 ng/mL, Short-term (25 °C, 24 h)): 8.1%
Stability RE ([2]; Cecum, 10 ng/mL, Freeze-thaw Cycles): 7.2%
Stability RE ([2]; Cecum, 10 ng/mL, Long-term (−70 °C, 4 Weeks)): 6.4%
Stability RE ([2]; Cecum, 10 ng/mL, Short-term (25 °C, 24 h)): 6.7%
Stability RE ([2]; Cecum, 200 ng/mL, Freeze-thaw Cycles): 3.9%
Stability RE ([2]; Cecum, 200 ng/mL, Long-term (−70 °C, 4 Weeks)): 3.2%
Stability RE ([2]; Cecum, 200 ng/mL, Short-term (25 °C, 24 h)): 3.1%
Stability RE ([2]; Cecum, 3000 ng/mL, Freeze-thaw Cycles): −4.9%
Stability RE ([2]; Cecum, 3000 ng/mL, Long-term (−70 °C, 4 Weeks)): −6.4%
Stability RE ([2]; Cecum, 3000 ng/mL, Short-term (25 °C, 24 h)): −5.1%
Stability RE ([2]; Colon, 10 ng/mL, Short-term (25 °C, 24 h)): 5.4%
Stability RE ([2]; Ileum, 10 ng/mL, Freeze-thaw Cycles): −3.5%
Stability RE ([2]; Ileum, 10 ng/mL, Long-term (−70 °C, 4 Weeks)): 3.2%
Stability RE ([2]; Ileum, 10 ng/mL, Short-term (25 °C, 24 h)): 2.9%
Stability RE ([2]; Ileum, 200 ng/mL, Freeze-thaw Cycles): 5.2%
Stability RE ([2]; Ileum, 200 ng/mL, Long-term (−70 °C, 4 Weeks)): −5.1%
Stability RE ([2]; Ileum, 200 ng/mL, Short-term (25 °C, 24 h)): 1.7%
Stability RE ([2]; Ileum, 3000 ng/mL, Freeze-thaw Cycles): 3.3%
Stability RE ([2]; Ileum, 3000 ng/mL, Long-term (−70 °C, 4 Weeks)): 3.5%
Stability RE ([2]; Ileum, 3000 ng/mL, Short-term (25 °C, 24 h)): 3.1%
Stability RE ([2]; Jejunum, 10 ng/mL, Freeze-thaw Cycles): 6.1%
Stability RE ([2]; Jejunum, 10 ng/mL, Long-term (−70 °C, 4 Weeks)): 5.6%
Stability RE ([2]; Jejunum, 10 ng/mL, Short-term (25 °C, 24 h)): 7.2%
Stability RE ([2]; Jejunum, 200 ng/mL, Freeze-thaw Cycles): 7.3%
